# Patent publication US5811078A, “Spray formulations of antihyperalgesic opiates and method of treating topical hyperalgesic conditions therewith” (Adolor Corporation, priority 1997, dated 1998)
# Counter-ions that a name gives are not always drawn. Like-named read-outs stand apart in the source and are kept apart here.
# Columns and labels:
# [1] = Peripheral selectivity: ratio of ED50 in the tail-withdrawal assay over ED50 in the anti-diarrheal (castor oil) assay; format: in vivo, female Wistar rats
# Source text: The cut off time is 15 seconds. […] After each determination the tail is carefully dried.
# Each animal is kept in an individual cage.
# central nervous system = conditions: reported prior use, antidiarrheal formulations, hydrochloride, cited from earlier work
Compound,Peripheral Selectivity (ED50tw/ED50 Castor Oil) ([1]; po),further results
"CCN(C)C(=O)C(CCN1CCC(O)(c2ccc(Cl)cc2)CC1)(c1ccccc1)c1ccccc1 [Compound 2, 4-(p-Chlorophenyl)-4-hydroxy-N-ethyl-N-methyl-ααdiphenyl-1-piperidinebutyramide]","≥ 1,231",
"CN(C)C(=O)C(CCN1CCC(O)(c2ccc(Br)cc2)CC1)(c1ccccc1)c1ccccc1 [Compound 3, 4-(p-Bromophenyl)-4-hydroxy-N,N-dimethyl-αα-diphenyl-1-piperidinebutyramide]",800,
O=C(N1CCCC1)C(CCN1CCC(O)(c2ccc(Cl)c(Cl)c2)CC1)(c1ccccc1)c1ccccc1 [Compound 4],,"Peripheral Selectivity (ED50tw/ED50 Castor Oil) ([1]; oral, rats, tail withdrawal ED50 over castor oil test ED50 (both mg/kg)): > 640"
"O=C(N1CCCC1)C(CCN1CCC(O)(c2ccc(Cl)cc2)CC1)(c1ccccc1)c1ccccc1 [Compound 5, 1-{4-[(4-Chlorophenyl)4-hydroxy-1-piperidino]-2,2-diphenylbutyryl}pyrrolidine]",593,
"CN(C)C(=O)C(CCN1CCC(O)(c2ccc(Cl)cc2)CC1)(c1ccccc1)c1ccccc1 [Compound 6, 4-(p-Chlorophenyl)-4-hydroxy-N,N-dimethyl-αα-diphenyl-1-piperidinebutyramide]",533,
"CN(C)C(=O)C(CCN1CCC(O)(c2ccc(F)cc2)CC1)(c1ccccc1)c1ccccc1 [Compound 7, 4-(p-Fluorophenyl)-4-hydroxy-N,N-dimethyl-αα-diphenyl-1-piperidinebutyramide]",500,
"CN(C)C(=O)C(CCN1CCC(O)(c2ccc(Cl)c(C(F)(F)F)c2)CC1)(c1ccccc1)c1ccccc1 [Compound 8, 4-(4-Chloro3-trifluoromethyl-phenyl)-4-hydroxy-N,N-dimethyl-αα-diphenyl-1-piperidinebutyramide]",467,
"O=C(N1CCCC1)C(CCN1CCC(O)(c2ccccc2)CC1)(c1ccccc1)c1ccccc1 [Compound 9, 1-[4-(4-Hydroxy-4phenyl-1piperidino)-2,2-diphenylbutyryl]pyrrolidine]",437,
O=C(N1CCOCC1)C(CCN1CCC(O)(c2cccc(C(F)(F)F)c2)CC1)(c1ccccc1)c1ccccc1 [Compound 10],> 251,
"CN(C)C(=O)C(CCN1CCC(O)(c2ccc(Cl)cc2)CC1)(c1ccccc1)c1ccccc1 [loperamide, 4-(p-chlorophenyl)-4-hydroxy-N-N-dimethyl-αα-diphenyl-1-piperidinebutyramide hydrochloride]",,CNS effects (central nervous system): devoid of CNS effects; CNS effects (central nervous system; listed as Loperamide HCl): completely free of the undesirable CNS effects
